Assay results reported in PMC11231141, “Ube3a unsilencer for the potential treatment of Angelman syndrome” (Nature Communications, 2024).

Columns and labels:
UBE3A mRNA [1] = test system: UBE3A mRNA; parameters: method as in Sen et al.3; settings: 11-week human cortical organoids, 72 hours, 1M topotecan, ref Sen et al.3; cited from earlier work
Ube3a-ATS = experiment: quantitative RT-PCR of Ube3a-ATS in Ube3a m-/p+ primary neurons; assay type: cell-based, mouse; settings: 72 h at DIV7; 0.3 µM topotecan, 1 µM (S)- or (R)-PHA533533, 0.1 µM 2, 0.1 µM 3, 0.3 µM (±)-4, 5 µM (S,R)-5
[2] = cytotoxicity (% viable DAPI/NeuN neurons vs DMSO) in mouse primary neurons; assay type: cell-based; settings: primary cortical neurons from E15.5 mouse embryos, mean ± SEM, n = 3
Procedure: Immunofluorescence for high-content imaging analysis was performed as previously described with slight modifications. Following drug treatment at DIV7, primary neurons were fixed at DIV10 with 4% paraformaldehyde in PBS at room temperature (RT) for 10 min. After three brief washes in PBS, neurons were permeabilized with PBS/1% Triton-X-100 at RT for 10 min, followed by blocking with PBS including 5% normal goat serum and 0.2% Triton-X-100 (NGST) at RT. […] All acquired images were analyzed by CellProfiler[48]. The mean GFP signal from each drug-treated well was normalized to the average mean GFP signal from DMSO-treated neurons. […] Fluorescent images were acquired using a Nikon Ti2 eclipse fluorescence microscope (Nikon Instruments Inc.) and analyzed using Nikon NIS-Elements software (Nikon Instruments Inc.). Antibody-enhanced UBE3A-YFP fluorescence intensities were determined from DAPI and NeuN double-positive neurons in drug-treated wells and normalized to neurons in DMSO-treated wells. The cytotoxicity of a compound was determined by calculating the percentage of neurons (DAPI and NeuN double-positive cells) alive in drug-treated wells compared to the DMSO-treated wells. For determining the effectiveness of unsilencing, the percent neurons expressing GFP signal in neurons (DAPI and NeuN double-positive cells) in drug-treated wells was thresholded such that the percent GFP positive neurons in DMSO-treated wells was set to ~5%. Concentrations where more than 10% of neurons were dead compared to DMSO-treated wells were manually removed and the last included data point was set as a maximum efficacy. Sigmoidal curve fitting for the dose-response analysis was performed using GraphPad Prism software version 8.0 (GraphPad Software).

Snord115 = settings: 72 h at DIV7; 0.3 µM topotecan, 1 µM (S)- or (R)-PHA533533, 0.1 µM 2, 0.1 µM 3, 0.3 µM (±)-4, 5 µM (S,R)-5
Procedure: (§1) Next, 1 ml of Neurobasal Plus medium (A3582901, ThermoFisher) containing 5% FBS (TMS-013-B; MilliporeSigma) was added to the cortical mixture to deactivate the papain and subsequently triturated. […] Isolated cortical neurons were plated onto poly-D-lysine coated 384-well plates at 2 × 10^4 cell/well for screening and dose-response assays, or 6-well plates at 1 × 10^6 cell/well for molecular and biochemical assays (western blot, ASO-dependent knock-down, and quantitative RT-PCR).
(§2) For RNA isolation, cultured cortical neurons were lysed using 350 μl of RLT lysis buffer (Qiagen) per well on a 6-well plate. For isolating RNA from mouse brain tissue, microdissected brain regions were snap-frozen in liquid nitrogen and stored at −80 °C until the day of RNA extraction, and then lysed using RLT lysis buffer containing 1% of β-mercaptoethanol. Total RNA was extracted from both cultured cells and brain tissue using RNeasy Mini kit (Qiagen). cDNA was synthesized from 1 μg of total RNA using qScript cDNA Supermix (Quantabio). 1/25 of synthesized cDNA was used per qPCR reaction together with PowerUp SYBR Green Master Mix (A25742, Applied Biosystems) and a specific primer pair (Table 2). qPCR was performed in a QuantStudio 5 Real-Time PCR system (Applied Biosystems). The specificity of the amplification products was verified by melting curve analysis. All qPCRs were conducted in technical triplicates, and the results were averaged for each sample, normalized to Gapdh expression, and analyzed using the comparative CT method (∆∆CT).

Ube3a mRNA [3] = settings: Ube3a m-/p+ neurons, 72 h at DIV7; 0.3 µM topotecan, 1 µM (S)- or (R)-PHA533533, 0.1 µM 2, 0.1 µM 3, 0.3 µM (±)-4, 5 µM (S,R)-5
Procedure: as §1, §2

Snrpn = settings: 72 h at DIV7; 0.3 µM topotecan, 1 µM (S)-PHA533533, 0.1 µM 2, 0.1 µM 3, 0.3 µM (±)-4, 5 µM (S,R)-5
Procedure: as §1, §2

Snord116 = settings: 72 h at DIV7; 0.3 µM topotecan, 1 µM (S)-PHA533533, 0.1 µM 2, 0.1 µM 3, 0.3 µM (±)-4, 5 µM (S,R)-5
Procedure: as §1, §2

CDK5/p25 complex = test system: CDK5/p25 complex; parameters: method as in PMID 15828833; settings: read-out: IC50 against CDK5/p25 complex; cited from earlier work

SMILES	increase of UBE3A mRNA levels (UBE3A mRNA [1]) [fold]	relative quantity of Ube3a-ATS vs DMSO (Ube3a-ATS)	CC50 at 72 h [2] [nM]	relative quantity of Snord115 vs DMSO (Snord115)	Ube3a mRNA levels vs DMSO (Ube3a mRNA [3])	relative quantity of Snrpn vs DMSO (Snrpn)	relative quantity of Snord116 vs DMSO (Snord116)	IC50 (CDK5/p25 complex) [nM]
CC[C@@]1(O)C(=O)OCc2c1cc1n(c2=O)Cc2cc3c(CN(C)C)c(O)ccc3nc2-1 [Topotecan, reference compound]	1.8	downregulated	2130 ± 620	significantly reduced	significantly increased	significantly reduced	without affecting	–
C[C@H](C(=O)Nc1cc(C2CC2)[nH]n1)c1ccc(N2CCCC2=O)cc1 [(S)-PHA533533]	–	–	–	–	–	–	–	65
